How the values were obtained:
[1] = molecular target: T1, macrophage nitric oxide synthetase (Mus musculus, UniProt P29477); assay: Screen B: macrophage nitric oxide synthetase inhibiting activity; type: biochemical, murine; details: macrophage IC50 / neuronal IC50
T1 construct: Enzyme is prepared, after induction, from the cultured murine macrophage cell line J774A-1; endogenous in cells; host or cells: J774A-1 murine macrophages induced with LPS and IFN-gamma (lysate); cells from laboratories of the Imperial Cancer Research Fund
Excerpt: The enzyme nitric oxide synthetase has a number of isoforms and compounds of formula I, or pharmaceutically acceptable salts thereof, may be screened for nitric oxide synthetase inhibiting activity by procedures based on those of Bredt and Snyder in Proc. Natl. Acad. Sci. (1990) 87, 682-685 and Forstermann et. al., Eur. J. Pharm. (1992) 225, 161-165 as follows. Nitric oxide synthetase converts ^3 H-L-arginine to ^3 H-L-citrulline which can be separated by cation exchange chromatography and quantified by scintillation counting.
Enzyme is prepared, after induction, from the cultured murine macrophage cell line J774A-1 (obtained from laboratories of the Imperial Cancer Research Fund).
J774A-1 cells are cultured in Dulbecco's Modified Eagles Medium (DMEM) supplemented with 10% foetal bovine serum, 4 mM L-glutamine and antibiotics (100 units/ml penicillin G, 100 μg/ml streptomycin & 0.25 μg/ml amphotericin B).
Cells are routinely grown in 225 cm^2 flasks containing 35 ml medium kept at 37° C. and in a humidified atmosphere containing 5% CO2.
Nitric oxide synthetase is produced by cells in response to interferon-γ (IFNγ) and lipopolysaccharide (LPS). […]
Labelled L-citrulline is separated from labelled L-arginine using Dowex AG-50W. […] After allowing the samples to dry the L-citrulline is quantified by scintillation counting. […]

[2] = molecular target: T2, neuronal nitric oxide synthetase (Rattus norvegicus, UniProt P29476); assay: Screen A: neuronal nitric oxide synthetase inhibiting activity; type: biochemical; details: enzyme from rat hippocampus or cerebellum; 22° C., pH 7.4, 10 minutes; read-out: IC50 in Screen A (neuronal isoform)
T2 construct: Enzyme was isolated from rat hippocampus or cerebellum; from tissue; host or cells: male Sprague-Dawley rat cerebellum or hippocampus, 20,000 g supernatant
T2 sequence (P29476 whole entry, canonical isoform): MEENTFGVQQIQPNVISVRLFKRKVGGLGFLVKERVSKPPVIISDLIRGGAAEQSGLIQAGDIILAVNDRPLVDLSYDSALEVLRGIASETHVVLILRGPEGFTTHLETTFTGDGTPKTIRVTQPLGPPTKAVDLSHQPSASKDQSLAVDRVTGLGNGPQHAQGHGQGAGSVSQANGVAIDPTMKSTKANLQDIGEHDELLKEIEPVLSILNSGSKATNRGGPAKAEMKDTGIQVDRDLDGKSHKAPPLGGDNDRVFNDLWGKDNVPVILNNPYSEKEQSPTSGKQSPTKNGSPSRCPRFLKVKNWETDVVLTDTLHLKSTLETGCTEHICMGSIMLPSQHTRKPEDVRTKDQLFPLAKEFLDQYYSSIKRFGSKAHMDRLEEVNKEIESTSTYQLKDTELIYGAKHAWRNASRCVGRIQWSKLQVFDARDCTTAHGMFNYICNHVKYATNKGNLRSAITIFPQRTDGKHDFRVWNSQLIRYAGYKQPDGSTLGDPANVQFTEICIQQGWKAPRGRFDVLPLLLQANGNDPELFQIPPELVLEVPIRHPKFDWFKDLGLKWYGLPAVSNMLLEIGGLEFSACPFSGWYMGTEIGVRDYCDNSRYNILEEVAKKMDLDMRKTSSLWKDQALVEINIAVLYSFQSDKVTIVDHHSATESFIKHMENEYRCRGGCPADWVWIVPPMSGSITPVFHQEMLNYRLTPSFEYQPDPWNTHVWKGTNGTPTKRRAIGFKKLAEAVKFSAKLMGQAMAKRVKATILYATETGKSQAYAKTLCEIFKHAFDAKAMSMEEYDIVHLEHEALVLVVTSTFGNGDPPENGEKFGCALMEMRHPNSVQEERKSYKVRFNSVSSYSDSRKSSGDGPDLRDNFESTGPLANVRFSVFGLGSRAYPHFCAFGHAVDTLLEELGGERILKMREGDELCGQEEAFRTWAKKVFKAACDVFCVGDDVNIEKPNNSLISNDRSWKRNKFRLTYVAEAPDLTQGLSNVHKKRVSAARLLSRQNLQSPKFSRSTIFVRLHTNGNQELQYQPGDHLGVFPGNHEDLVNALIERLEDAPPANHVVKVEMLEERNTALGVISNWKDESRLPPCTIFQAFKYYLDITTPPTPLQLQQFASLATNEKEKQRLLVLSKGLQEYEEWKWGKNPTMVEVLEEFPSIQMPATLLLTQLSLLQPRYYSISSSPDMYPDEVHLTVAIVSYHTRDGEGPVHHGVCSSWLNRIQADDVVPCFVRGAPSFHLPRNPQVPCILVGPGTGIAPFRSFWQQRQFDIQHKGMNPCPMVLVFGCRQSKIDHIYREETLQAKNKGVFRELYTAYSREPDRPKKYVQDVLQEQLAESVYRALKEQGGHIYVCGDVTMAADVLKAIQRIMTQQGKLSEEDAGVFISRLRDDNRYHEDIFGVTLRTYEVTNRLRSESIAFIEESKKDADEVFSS

[3] = molecular target: T3, endothelial nitric oxide synthetase (Homo sapiens, UniProt P29474); assay: Screen C: endothelial nitric oxide synthetase inhibiting activity; type: biochemical
T3 construct: Enzyme may be isolated from human umbilical vein endothelial cells (HUVECs); endogenous in cells; host or cells: HUVECs (cells purchased from Clonetics Corp, San Diego); CHAPS-solubilised pellet supernatant
T3 sequence (P29474 2-1203): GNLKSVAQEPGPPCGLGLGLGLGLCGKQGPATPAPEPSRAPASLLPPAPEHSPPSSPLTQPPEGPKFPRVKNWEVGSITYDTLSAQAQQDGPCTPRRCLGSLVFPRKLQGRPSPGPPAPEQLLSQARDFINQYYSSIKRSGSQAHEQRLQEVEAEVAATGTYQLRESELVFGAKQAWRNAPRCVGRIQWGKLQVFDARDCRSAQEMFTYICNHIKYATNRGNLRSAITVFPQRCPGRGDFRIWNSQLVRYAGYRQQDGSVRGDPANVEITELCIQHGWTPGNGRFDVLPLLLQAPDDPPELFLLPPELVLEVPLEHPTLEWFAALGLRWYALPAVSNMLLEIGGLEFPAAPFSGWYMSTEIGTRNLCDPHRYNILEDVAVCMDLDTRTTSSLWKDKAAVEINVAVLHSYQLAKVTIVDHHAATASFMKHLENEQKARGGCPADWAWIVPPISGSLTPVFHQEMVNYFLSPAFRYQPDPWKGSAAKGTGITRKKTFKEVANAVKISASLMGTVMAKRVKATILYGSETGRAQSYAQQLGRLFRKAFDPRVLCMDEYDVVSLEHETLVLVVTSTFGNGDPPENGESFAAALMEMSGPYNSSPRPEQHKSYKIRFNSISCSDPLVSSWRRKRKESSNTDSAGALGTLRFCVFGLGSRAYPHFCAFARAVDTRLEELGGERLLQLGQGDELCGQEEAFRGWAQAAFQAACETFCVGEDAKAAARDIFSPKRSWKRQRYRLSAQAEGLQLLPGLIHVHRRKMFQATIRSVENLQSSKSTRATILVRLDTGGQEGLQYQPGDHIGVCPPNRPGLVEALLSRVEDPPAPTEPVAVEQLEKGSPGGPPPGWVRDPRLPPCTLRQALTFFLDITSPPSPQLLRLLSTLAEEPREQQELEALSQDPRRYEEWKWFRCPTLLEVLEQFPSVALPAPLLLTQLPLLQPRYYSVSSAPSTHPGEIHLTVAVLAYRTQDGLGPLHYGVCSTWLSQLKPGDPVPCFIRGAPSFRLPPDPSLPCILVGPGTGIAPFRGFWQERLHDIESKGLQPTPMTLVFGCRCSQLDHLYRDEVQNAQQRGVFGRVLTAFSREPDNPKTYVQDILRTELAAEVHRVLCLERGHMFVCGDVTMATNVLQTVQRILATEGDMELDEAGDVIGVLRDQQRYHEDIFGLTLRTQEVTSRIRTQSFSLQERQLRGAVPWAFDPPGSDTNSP

IC50 in Screen B relative to that obtained in Screen A (selectivity) [1] | IC50 [2] | IC50 in Screen C relative to that obtained in Screen A (selectivity) ([3]; endothelial IC50 / neuronal IC50) | inhibition at 1 µM ([3]; at a concentration of 1 μM, HUVEC enzyme, read-out: inhibition of nitric oxide synthetase (reference standard, Screen C)) | SMILES
more than 10 times | < 10 µM | more than 10 times |  | N=C(Nc1ccc2c(c1)CC(NCc1ccccc1)C2)c1cccs1 (stereo not shown) [Example 1, N-((2-(Phenylmethyl)amino)indan-5-yl)-2-thiophenecarboximidamide dioxalate]
 |  |  | 70 to 90% | N=C(NCCC[C@H](N)C(=O)O)N[N+](=O)[O-] [N-nitro-L-arginine, reference compound]

— patent US5807886A, “Bicyclic amidine dervatives as inhibitors of nitric oxide synthetase” (priority 1994, dated 1998)
